The record followed here is patent US11952364B2, “TRK inhibitors useful as anticancer drugs” (TYLIGAND BIOSCIENCE (SHANGHAI) LIMITED, priority 2018, dated 2024).

This assay deals with Ba/F3 ETV6-NTRK3-G696C cells. The assay can be described thus: Proliferation of Ba/F3 ETV6-NTRK3-G696C cells (CellTiter-Glo). It is filed as cell-based, mouse. From the text:
Ba/F3 ETV6-NTRK3-G696C is a stable transgenic cell line constructed by KYinno Biotechnology Co., Ltd. on mouse primary B cell Ba/F3 wherein NTRK3 is highly expressed with a mutation of G at position […] to C and fused with ETV6 to form ETV6-NTRK3. • [Test method]: Promega's CellTiter-Glo® Luminescent Cell Viability Assay kit was used to evaluate the inhibitory activity of the compounds on the proliferation of Ba/F3 ETV6-NTRK3-G696C cells. • [Instrument]: Spectramax M3 multifunctional microplate reader from Molecular Devices. • [Test materials]: Ba/F3 ETV6-NTRK3-G696C cell line (constructed by KYinno Biotechnology Co., Ltd. (Beijing)), 96-well transparent flat-bottomed black-walled cell culture plate (Corning, cat #3603), RPMI-1640 media (GE, product number #SH30027.01), fetal bovine serum FBS (Thermo Fisher, cat #10099-141), CellTiter-Glo® Luminescent Cell Viability Assay kit (Promega, cat #G7572), PBS (Solarbio, cat #P1020), DMSO (Sigma, cat #D2650). • [Experimental procedure]: When resuscitating Ba/F3 ETV6-NTRK3-G696C cells, • the freezing tube was quickly shaken in a 37° C. water bath to melt within 1 minute. The thawed cell suspension was mixed uniformly with RPMI1640 medium containing 10% FBS, centrifuged at 1000 rpm for 5 minutes, and the supernatant discarded. 5 mL of complete medium (RPMI1640 medium with 10% FBS) was taken to resuspend the cell pellets, charged into a cell culture flask with a bottom area of 25 cm^2, and incubated in a cell incubator at 37° C., 95% humidity and 5% CO2. Cells were allowed to passage when the number of cells reached about 10^6 cells/mL. For cell passage, the old cell suspension was directly pipetted evenly, 1/5 of the cell suspension was kept, 4 mL of new complete medium was added, after pipetting evenly, the cell flask was placed in the cell incubator for further culturing. Cell plating was performed when the number of cells reached about 10^6 cells/mL again. For cell plating, 1/5 of the cell suspension was kept for further culturing as in the cell passage method, and the remaining 4/5 of the cell suspension was placed in a 15 mL centrifuge tube, detected for cell viability by Trypan blue exclusion method to ensure that cell viability was above 90%. A cell suspension with a density of 5.56×10^4 viable cells/mL was prepared with complete medium, and 90 μL of such cell suspension was added to a 96-well cell culture plate to obtain the cell density of 5000 viable cells/mL in the cell culture plate. A control group containing no cells, no compound and only complete medium (i.e. culture medium control) and a control group containing no compound but containing cells (i.e. cell control) were set. The cell plate was placed in a cell incubator overnight. The 10 mM compound stock solution in DMSO was first serially diluted with DMSO at a dilution factor of 3.16 times, to obtain 9 concentrations, and the 10th concentration was set as DMSO control without compound. Then, PBS was used to dilute the DMSO solutions of compounds of different concentrations, at a dilution factor of 100 times, so that the DMSO concentration in the compound solution of each concentration was 1%. Finally, 10 μL of each of the above solutions was added to the corresponding cell culture plate, so that the initial compound concentration was 10 μM, with the remaining concentrations being successively diluted at a dilution factor of 3.16 times, and the DMSO content in the cell culture plate was 0.1%. The cell plate was placed in a cell incubator and cultured for 72 hours. For endpoint detection, the CellTiter-Glo reagent was melted, and the cell plate was moved to room temperature to equilibrate for 30 minutes, added with 100 μL of CellTiter-Glo for each well, and shaken on an orbital shaker for 5 minutes to fully lyse the cells. […]
Background: Cellular ATP, detected with luciferase, serves as a proxy for viable cell number.

[1] abbreviates: Mus musculus, BaF3, 72 h, Table 7, 72 hours, read-out: Ba/F3 ETV6-NTRK3-G696C, IC50.
Where [2] appears, read: Mus musculus, BaF3, Table 7-2, separate test, read-out: Ba/F3 ETV6-NTRK3-G696C, IC50.
Where [3] appears, read: Mus musculus, BaF3, Table 7-1, separate test, read-out: Ba/F3 ETV6-NTRK3-G696C, IC50.
Where [4] appears, read: Mus musculus, BaF3, Table 9, read-out: Ba/F3 ETV6-NTRK3-G696C cell proliferation inhibitory activity (IC50).

Like-named read-outs stand apart in the source and are kept apart here.

On to `Cn1ncc2cc(Oc3ccc(NC(=O)c4ccc(C(F)(F)F)n(-c5ccc(F)cc5)c4=O)cc3F)c(-c3cn[nH]c3)cc21` [Example 1, N-(3-fluoro-4-(1-methyl-6-(1H-pyrazol-4-yl)-1H-indazol-5-yloxy)phenyl)-1-(4-fluorophenyl)-6-trifluoromethyl-2-oxo-1,2-dihydmpyridine-3-carboxamide monomethanesulfonate], for which the IC50 under setting [1] was determined as 33 nM.

With `Cn1ncc2cc(Oc3ccc(NC(=O)c4ccc(C5CC5)n(-c5ccc(F)cc5)c4=O)cc3F)c(-c3cn[nH]c3)cc21` [Example 2, N-(3-fluoro-4-(1-methyl-6-(1H-pyrazol-4-yl)-1H-indazol-5-yloxy)phenyl)-1-(4-fluorophenyl)-6-cyclopropyl-2-oxo-1,2-dihydmpyridine-3-carboxamide], the IC50 under setting [1] was 20 nM.

Consider `CCn1ncc2cc(Oc3ccc(NC(=O)c4ccc(C)n(-c5ccc(F)cc5)c4=O)cc3F)c(-c3cn[nH]c3)cc21` [Example 3, N-(3-fluoro-4-(1-ethyl-6-(1H-pyrazol-4-yl)-1H-indazol-5-yloxy)phenyl)-1-(4-fluorophenyl)-6-methyl-2-oxo-1,2-dihydmpyridine-3-carboxamide], for which the IC50 under setting [1] is 18 nM.

`Cc1ccc(C(=O)Nc2ccc(Oc3cc4cnn(C(C)C)c4cc3-c3cn[nH]c3)c(F)c2)c(=O)n1-c1ccc(F)cc1` [Example 4, N-(3-fluoro-4-(1-isopropyl-6-(1H-pyrazol-4-yl)-1H-indazol-5-yloxy)phenyl)-1-(4-fluorophenyl)-6-methyl-2-oxo-1,2-dihydmpyridine-3-carboxamide]: the IC50 under setting [1] was determined as 34 nM.

With `CCc1ccc(C(=O)Nc2ccc(Oc3cc4cnn(C)c4cc3-c3cn[nH]c3)c(F)c2)c(=O)n1-c1ccc(F)cc1` [Example 5, N-(3-fluoro-4-(1-methyl-6-(1H-pyrazol-4-yl)-1H-indazol-5-yloxy)phenyl)-1-(4-fluorophenyl)-6-ethyl-2-oxo-1,2-dihydropyridine-3-carboxamide], under setting [1], the IC50 is 6.8 nM.

Turning to `CC(C)c1ccc(C(=O)Nc2ccc(Oc3cc4cnn(C)c4cc3-c3cn[nH]c3)c(F)c2)c(=O)n1-c1ccc(F)cc1` [Example 6, N-(3-fluoro-4-(1-methyl-6-(1H-pyrazol-4-yl)-1H-indazol-5-yloxy)phenyl)-1-(4-fluorophenyl)-6-isopropyl-2-oxo-1,2-dihydropyridine-3-carboxamide], the IC50 under setting [1] came out at 16 nM.

Turning to `CSc1ccc(C(=O)Nc2ccc(Oc3cc4cnn(C)c4cc3-c3cn[nH]c3)c(F)c2)c(=O)n1-c1ccc(F)cc1` [Example 11, N-(3-fluoro-4-(1-methyl-6-(1H-pyrazol-4-yl)-1H-indazol-5-yloxy)phenyl)-1-(4-fluorophenyl)-6-methylthio-2-oxo-1,2-dihydropyidine-3-carboxamide], the IC50 under setting [2] is 1.8 nM.

Consider `COc1ccc(C(=O)Nc2ccc(Oc3cc4cnn(C)c4cc3-c3cn[nH]c3)c(F)c2)c(=O)n1-c1ccc(F)cc1` [Example 12, N-(3-fluoro-4-(1-methyl-6-(1H-pyrazol-4-yl)-1H-indazol-5-yloxy)phenyl)-1-(4-fluorophenyl)-6-methoxy-2-oxo-1,2-dihydropyridine-3-carboxamide], for which the IC50 under setting [3] is 3 nM.

Consider `CCOc1ccc(C(=O)Nc2ccc(Oc3cc4cnn(C)c4cc3-c3cn[nH]c3)c(F)c2)c(=O)n1-c1ccc(F)cc1` [Example 14, N-(3-fluoro-4-(1-methyl-6-(1H-pyrazol-4-yl)-1H-indazol-5-yloxy)phenyl)-1-(4-fluorophenyl)-6-ethoxy-2-oxo-12-dihydropyridine-3-carboxamide], for which, under setting [2], the IC50 amounted to 1.6 nM.

On to `Cn1ncc2cc(Oc3ccc(NC(=O)c4ccc(OC5CC5)n(-c5ccc(F)cc5)c4=O)cc3F)c(-c3cn[nH]c3)cc21` [Example 15, N-(3-fluoro-4-(1-methyl-6-(1H-pyrazol-4-yl)-1H-indazol-5-yloxy)phenyl)-1-(4-fluorophenyl)-6-cyclopropoxy-2-oxo-1,2-dihydropyridine-3-carboxamide], for which, under setting [2], the IC50 was found to be 1.9 nM.

As for `CC(C)Oc1ccc(C(=O)Nc2ccc(Oc3cc4cnn(C)c4cc3-c3cn[nH]c3)c(F)c2)c(=O)n1-c1ccc(F)cc1` [Example 16, N-(3-fluoro-4-(1-methyl-6-(1H-pyrazol-4-yl)-1H-indazol-5-yloxy)phenyl)-1-(4-fluorophenyl)-6-isopropoxy-2-oxo-1,2-dihydropyridine-3-carboxamide], the IC50 under setting [2] stood at 1.2 nM.

For the compound `CCc1ccc(C(=O)Nc2ccc(Oc3cc4cnn(CC)c4cc3-c3cn[nH]c3)c(F)c2)c(=O)n1-c1ccc(F)cc1` [Example 18, N-(3-fluoro-4-(1-ethyl-6-(1H-pyrazol-4-yl)-1H-indazol-5-yloxy)phenyl)-1-(4-fluorophenyl)-6-ethyl-2-oxo-1,2-dihydropyridine-3-carboxamide], under setting [3], the IC50 amounted to 12 nM.

Consider `CCn1ncc2cc(Oc3ccc(NC(=O)c4ccc(C5CC5)n(-c5ccc(F)cc5)c4=O)cc3F)c(-c3cn[nH]c3)cc21` [Example 19, N-(3-fluoro-4-(1-ethyl-6-(1H-pyrazol-4-yl)-1H-indazol-5-yloxy)phenyl)-1-(4-fluorophenyl)-6-cyclopropyl-2-oxo-1,2-dihydropyridine-3-carboxamide], for which the IC50 under setting [3] worked out at 14 nM.

For the compound `CCn1ncc2cc(Oc3ccc(NC(=O)c4ccc(OC)n(-c5ccc(F)cc5)c4=O)cc3F)c(-c3cn[nH]c3)cc21` [Example 23, N-(3-fluoro-4-(1-ethyl-6-(1H-pyrazol-4-yl)-1H-indazol-5-yloxy)phenyl)-1-(4-fluorophenyl)-6-methoxy-2-oxo-1,2-dihydropyridine-3-carboxamide], the IC50 under setting [3] is 11 nM.

In the case of `CCOc1ccc(C(=O)Nc2ccc(Oc3cc4cnn(CC)c4cc3-c3cn[nH]c3)c(F)c2)c(=O)n1-c1ccc(F)cc1` [Example 24, N-(3-fluoro-4-(1-ethyl-6-(1H-pyrazol-4-yl)-1H-indazol-5-yloxy)phenyl)-1-(4-fluorophenyl)-6-ethoxy-2-oxo-12-dihydropyridine-3-carboxamide], the IC50 (Table 7-2, separate test, read-out: Ba/F3 ETV6-NTRK3-G696C, IC50) is 3.5 nM.

As for `CCn1ncc2cc(Oc3ccc(NC(=O)c4ccc(OC(C)C)n(-c5ccc(F)cc5)c4=O)cc3F)c(-c3cn[nH]c3)cc21` [Example 26, N-(3-fluoro-4-(1-ethyl-6-(1H-pyrazol-4-yl)-1H-indazol-5-yloxy)phenyl)-1-(4-fluorophenyl)-6-isopropoxy-2-oxo-1,2-dihydropyridine-3-carboxamide], the IC50 under setting [2] worked out at 3.1 nM.

In the case of `COc1ccc(C(=O)Nc2ccc(Oc3cc4cnn5c4c(c3-c3cn[nH]c3)CC5)c(F)c2)c(=O)n1-c1ccc(F)cc1` [Example 28, N-(4-((5-(1H-pyrazol-4-yl)-6,7-dihydropyrrolo[3,2,1-hi]-indazol-4-yl)oxy)-3-fluorophenyl)-1-(4-fluorophenyl)-6-methoxy-2-oxo-1,2-dihydropyidine-3-carboxamide], under setting [4], the IC50 is 3.6 nM.

On to `Cc1ccc(C(=O)Nc2ccc(Oc3cc4cnn5c4c(c3-c3cn[nH]c3)CC5)c(F)c2)c(=O)n1-c1ccc(F)cc1` [Example 31, N-(4-((5-(1H-pyrazol-4-yl)-6,7-dihydropyrrolo[3,2,1-hi]-indazol-4-yl)oxy)-3-fluorophenyl)-1-(4-fluorophenyl)-6-methyl-2-oxo-1,2-dihydropyridine-3-carboxamide], for which the IC50 under setting [4] is 5.3 nM.
